Read-outs that look alike come from different tables or passages of the source. Each block holds one molecule with its values, some of them ahead of it.
Experiments:
Type in all cases: cell-based, human
MUTZ-2 = assay: MI-219 apoptosis induction in AML cell lines; settings: MUTZ-2 AML cell line, p53 wt
Method: (§1) Next—the ability of MI-219 to induce apoptosis in 19 AML-derived cell lines was assessed.

AML-193 = assay: MI-219 apoptosis induction in AML cell lines; settings: AML-193 AML cell line, p53 (exon5-9) mut
Method: as §1

Kasumi-3 = assay: MI-219 apoptosis induction in AML cell lines; settings: Kasumi-3 AML cell line, p53 (exon5-9) mut
Method: as §1

GF-D8 = assay: MI-219 apoptosis induction in AML cell lines; settings: GF-D8 AML cell line, p53 (exon5-9) mut
Method: as §1

KG-1 = assay: MI-219 apoptosis induction in AML cell lines; settings: KG-1 AML cell line, p53 (exon5-9) mut
Method: as §1

AP-1060 = assay: MI-219 apoptosis induction in AML cell lines; settings: AP-1060 AML cell line, p53 wt
Method: as §1

ML-2 = assay: MI-219 apoptosis induction in AML cell lines; settings: ML-2 AML cell line, p53 wt
Method: as §1

HL60 = assay: MI-219 apoptosis induction in AML cell lines; settings: HL60 AML cell line, p53 deleted
Method: as §1

Kasumi-1 = assay: MI-219 apoptosis induction in AML cell lines; settings: Kasumi-1 AML cell line, p53 (exon5-9) mut
Method: as §1

OCI-M2 = assay: MI-219 apoptosis induction in AML cell lines; settings: OCI-M2 AML cell line, p53 (exon5-9) mut
Method: as §1

MOLM-13 = assay: MI-219 apoptosis induction in AML cell lines; settings: MOLM-13 AML cell line, p53 wt
Method: as §1

SIG-M5 = assay: MI-219 apoptosis induction in AML cell lines; settings: SIG-M5 AML cell line, p53 wt
Method: as §1

OCI-AML-3 = assay: MI-219 apoptosis induction in AML cell lines; settings: OCI-AML-3 AML cell line, p53 wt
Method: as §1

MONO-MAC-6 = assay: MI-219 apoptosis induction in AML cell lines; settings: MONO-MAC-6 AML cell line, p53 (exon5-9) mut
Method: as §1

ME-1 = assay: MI-219 apoptosis induction in AML cell lines; settings: ME-1 AML cell line, p53 (exon5-9) mut
Method: as §1

SKM-1 = assay: MI-219 apoptosis induction in AML cell lines; settings: SKM-1 AML cell line, p53 (exon5-9) mut
Method: as §1

OCI-AML-2 = assay: MI-219 apoptosis induction in AML cell lines; settings: OCI-AML-2 AML cell line, p53 wt
Method: as §1

OCI-AML-5 = assay: MI-219 apoptosis induction in AML cell lines; settings: OCI-AML-5 AML cell line, p53 wt
Method: as §1

MOLM-16 = assay: MI-219 apoptosis induction in AML cell lines; settings: MOLM-16 AML cell line, p53 (exon5-9) mut
Method: as §1

[1] = system: p53 expression in resistant AML blasts with absent p53 expression; assay: Ex vivo AML blasts epigenetic and MDM2 inhibitor apoptosis assay; settings: alone or in combination, followed by MI-219; four AML cases with absent or very low p53 mRNA
Method: Blasts enriched to >90% purity using methods detailed above were incubated with either DMSO or 0.5 μM 5-azacytidine (A2385, Sigma-Aldrich, Saint Louis, Mo.) for 48 hours (with 5-azacytidine replenished every 24 hours). During the last 12 hours of incubation, blasts were further aliquoted and treated with either 0.3 μM Trichostatin A (#9950, Cell Signaling Technology, Danvers, Mass.) or DMSO. At the end of the 48 hour incubation, each of the four differentially treated subgroups of blasts were treated with MI-219 at final concentrations of 0, 2.5, 5 and 10 μM for 40 hours, followed by annexin-V/PI FACS-based analysis of apoptosis. Aliquots of blasts in parallel were cultured in a 48-well plate at 10^6 cells per well in 1 ml of medium and treated with 10 μM MI-219 or solvent for 8 hours. Blasts were harvested, lysed and protein prepared for immunoblotting as described.
Attempting to obtain evidence for epigenetic p.53 gene silencing in AML with absent p53 mRNA expression, four AML cases were selected based on the availability of cryopreserved cells with absent or very low p53 mRNA for further analysis and treated purified blasts with trichostatin A and azacytidine (alone or in combination) followed by treatment with MI-219. Readouts for these experiments was the fraction of blasts undergoing apoptosis and posttreatment p53 protein levels. […]

p53 = p53 immunoblot of AML cell lines after MI-219 treatment
AML blasts = assay: Ex vivo AML blasts MDM2 inhibitor apoptosis assay (annexin-V/PI FACS)
Method: Blasts enriched to >90% purity using methods detailed above were incubated in serum-supplemented RPMI medium at 2.5×10^5 cells in 100 μl final volume in the presence of various concentrations of the MDM2 inhibitors MI-219 and MI-63 (range 0.625-20 μM) for 40 hours. Apoptosis and necrosis was measured for each treated blast aliquot using annexin-V/PI FACS-based readouts and values subsequently normalized to spontaneous death rates in untreated parallel cultures according to the formula (% alive=% mean alive treated samples/% mean alive paired non-treated samples).
To evaluate the efficacy of MDM2 inhibitor-mediated apoptotic cell kill in AML blasts ex vivo, blasts from 109 AML specimens (97 with wild type p53 and 12 with mutant p53 by exon 5-9 exon sequence analysis) were purified to >90% purity and cell aliquots were incubated for 40 hours with escalating concentrations of the MDM2 inhibitors MI-219 (N=109) and MI-63 (N=60). The apoptotic cell fraction in treated samples was subsequently quantitated through annexin V-PI-based FACS analysis and normalized to measurements in paired untreated cells.

[2] = ex vivo, blasts from 109 patients

IC50 (MUTZ-2): 1.28 µM
IC50 (AML-193): > 20 µM
IC50 (Kasumi-3): > 20 µM
IC50 (GF-D8): > 20 µM
IC50 (KG-1): > 20 µM
IC50 (AP-1060): 4.22 µM
IC50 (ML-2): 7.04 µM
IC50 (HL60): > 20 µM
IC50 (Kasumi-1): > 20 µM
IC50 (OCI-M2): > 20 µM
IC50 (MOLM-13): 2.66 µM
IC50 (SIG-M5): 3.44 µM
IC50 (OCI-AML-3): 18.2 µM
IC50 (MONO-MAC-6): > 20 µM
IC50 (ME-1): > 20 µM
IC50 (SKM-1): > 20 µM
IC50 (OCI-AML-2): 5.25 µM
IC50 (OCI-AML-5): 13.8 µM
IC50 (MOLM-16): > 20 µM
fraction of AML cases with wild type p53 with IC50>10 μM (AML blasts; 21/97 cases): 22%
fraction of AML cases with wild type p53 exon 5-9 that were very sensitive (IC50<2 μM) (AML blasts; 32/97 cases): 33%
fraction of AML cases with wild type p53 with IC50>5 μM (AML blasts; 32/97 cases): 33%
fraction of AML cases with wild type p53 exon 5-9 that were sensitive (IC50>2 μM to <5 μM) (AML blasts; 33/97 cases): 34%
fraction of AML samples with FLT3-ITD with IC50 <2 μM (AML blasts; FLT3-ITD, N=19): 58%
fraction of AML samples with FLT3-ITD with IC50 <5 μM (AML blasts; FLT3-ITD, N=19): 84%
IC50 (AML blasts; all AML with wild type p53 exon 5-9, read-out: threshold IC50 value at the 25th percentile): 1.78 µM
IC50 (AML blasts; all AML with wild type p53 exon 5-9, read-out: threshold IC50 value at the 50th percentile): 3.2 µM
IC50 (AML blasts; previously untreated AML cases, exclusive of p53 exon 5-9 mutations, read-out: mean IC50): 6.6 µM
IC50 (AML blasts; primary AML, exclusive of cases with p53 exon 5-9 mutations, 40 hours, read-out: mean IC50): 6.1 µM
IC50 (AML blasts; relapsed AML cases, exclusive of p53 exon 5-9 mutations, read-out: mean IC50): 4.4 µM
IC50 (AML blasts; secondary AML, exclusive of cases with p53 exon 5-9 mutations, 40 hours, read-out: mean IC50): 7.9 µM
IC50 (AML blasts; tAML, exclusive of cases with p53 exon 5-9 mutations, 40 hours, read-out: mean IC50): 4.8 µM
SMILES: CC(C)(C)C[C@H]1N[C@@H](C(=O)NCC[C@H](O)CO)[C@H](c2cccc(Cl)c2)[C@@]12C(=O)Nc1cc(Cl)c(F)cc12.Cl [MI-219]
p53 immunoblot (MI-219 10 μM) (p53; AP-1060): Inducible
p53 immunoblot (MI-219 10 μM) (p53; GF-D8): non-inducible
p53 immunoblot (MI-219 10 μM) (p53; Kasumi-1): non-inducible
p53 immunoblot (MI-219 10 μM) (p53; Kasumi-3): non-inducible
p53 immunoblot (MI-219 10 μM) (p53; ML-2): Inducible
p53 immunoblot (MI-219 10 μM) (p53; MOLM-13): Inducible
p53 immunoblot (MI-219 10 μM) (p53; MOLM-16): non-inducible
p53 immunoblot (MI-219 10 μM) (p53; MONO-MAC-6): non-inducible
p53 immunoblot (MI-219 10 μM) (p53; MUTZ-2): Inducible
p53 immunoblot (MI-219 10 μM) (p53; OCI-AML-2): Inducible
p53 immunoblot (MI-219 10 μM) (p53; OCI-AML-3): Inducible
p53 immunoblot (MI-219 10 μM) (p53; OCI-AML-5): Inducible
p53 immunoblot (MI-219 10 μM) (p53; OCI-M2): non-inducible
p53 immunoblot (MI-219 10 μM) (p53; SIG-M5): Inducible
p53 immunoblot (MI-219 10 μM) (p53; SKM-1): non-inducible
fraction of AML cases with unmutated p53 with primary resistance (AML blasts; [2]): ~30%
sensitivity of AML cases with mutated p53 (AML blasts; [2]): resistant

IC50 (MUTZ-2): 1.17 µM
IC50 (AML-193): > 10 µM
IC50 (Kasumi-3): > 10 µM
IC50 (GF-D8): > 10 µM
IC50 (KG-1): > 10 µM
IC50 (AP-1060): 4.03 µM
IC50 (ML-2): 7.47 µM
IC50 (HL60): > 10 µM
IC50 (Kasumi-1): > 10 µM
IC50 (OCI-M2): > 10 µM
IC50 (MOLM-13): 2.85 µM
IC50 (SIG-M5): 3.8 µM
IC50 (OCI-AML-3): > 10 µM
IC50 (MONO-MAC-6): > 10 µM
IC50 (ME-1): > 10 µM
IC50 (SKM-1): > 10 µM
IC50 (OCI-AML-2): 4.74 µM
IC50 (OCI-AML-5): > 10 µM
IC50 (MOLM-16): > 10 µM
SMILES: CC(C)(C)C[C@H]1N[C@@H](C(=O)NCCN2CCOCC2)[C@H](c2cccc(Cl)c2F)[C@@]12C(=O)Nc1cc(Cl)ccc12 [MI-63]

Second part, the molecule before the results:

SMILES: COc1ccc(C2=N[C@@H](c3ccc(Cl)cc3)[C@@H](c3ccc(Cl)cc3)N2C(=O)N2CCNC(=O)C2)c(OC(C)C)c1 [Nutlin, reference compound]
IC50 (MUTZ-2): 0.951 µM
IC50 (AML-193): > 10 µM
IC50 (Kasumi-3): > 10 µM
IC50 (GF-D8): > 10 µM
IC50 (KG-1): > 10 µM
IC50 (AP-1060): 6.77 µM
IC50 (ML-2): 10.4 µM
IC50 (HL60): > 10 µM
IC50 (Kasumi-1): > 10 µM
IC50 (OCI-M2): > 10 µM
IC50 (MOLM-13): 4.04 µM
IC50 (SIG-M5): 4.73 µM
IC50 (OCI-AML-3): > 10 µM
IC50 (MONO-MAC-6): > 10 µM
IC50 (ME-1): > 10 µM
IC50 (SKM-1): > 10 µM
IC50 (OCI-AML-2): 7.22 µM
IC50 (OCI-AML-5): > 10 µM
IC50 (MOLM-16): > 10 µM

SMILES: Nc1ncn([C@@H]2O[C@H](CO)[C@@H](O)[C@H]2O)c(=O)n1 [Azacytidine, 5-azacytidine]
p53 expression after treatment [1]: Does Not Induce p53 Expression

SMILES: CC(/C=C/C(=O)NO)=C\[C@@H](C)C(=O)c1ccc(N(C)C)cc1 [Trichostatin A]
p53 expression after treatment [1]: Does Not Induce p53 Expression

From patent US20110251252A1, “BIOMARKERS FOR MDM2 INHIBITORS FOR USE IN TREATING DISEASE” (THE REGENTS OF THE UNIVERSITY OF MICHIGAN, priority 2010, published 2011)
